Laboratory results: US20230406885A1, “CYCLIC PEPTIDES FOR TRAPPING INTERLEUKIN-1 BETA” (MERCK SHARP & DOHME LLC, priority 2022, published 2023)
*1 amine or outer side, *2 acyl side, *3 side chain or, on linkers, in order; H or OH if unused. Where a SMILES comes first, the peptide text is derived from it. [ ]: non-standard residue; d: D form. TyrEtNAc = L-tyrosine O-ethyl acetamide, (S)-3-(4-(2-acetamidoethoxy)phenyl)-2-aminopropanoic acid, CC(=O)NCCOc1ccc(C[C@H](N[*:1])C(=O)[*:2])cc1; hF3CF3 = (S)-2-amino-4-(3-(trifluoromethyl)phenyl)butanoic acid, O=C([C@H](CCc1cccc(C(F)(F)F)c1)N[*:1])[*:2]; Phe(4-(4-Ac-piperazinyl)) = CC(=O)N1CCN(c2ccc(C[C@H](N)C(=O)O)cc2)CC1; Pro(trans-4-NH2) = O=C([C@@H]1C[C@@H](N[*:3])CN1[*:1])[*:2]; Trp(βS-Me,4-F) = C[C@@H](c1c[nH]c2cccc(F)c12)[C@H](N)C(=O)O; Bip(4'-COOH) = N[C@@H](Cc1ccc(-c2ccc(C(=O)O)cc2)cc1)C(=O)O; X1 = CC(=O)N1CCN(c2ccc(C[C@H](N[*:1])C(=O)[*:2])cn2)CC1; 1Nal(3S-Me) = C[C@@H](c1cccc2ccccc12)[C@H](N)C(=O)O; hPhe(4-CF3) = N[C@@H](CCc1ccc(C(F)(F)F)cc1)C(=O)O; Phe(4-COOH) = N[C@@H](Cc1ccc(C(=O)O)cc1)C(=O)O; h3Pal(5-CN) = N#Cc1cncc(CC[C@H](N)C(=O)O)c1; Pro(4R-NH2) = N[C@H]1CN[C@H](C(=O)O)C1; Ala(4-THP) = N[C@@H](CC1CCOCC1)C(=O)O; AEF = NCCOc1ccc(C[C@H](N)C(=O)O)cc1; hTyr = N[C@@H](CCc1ccc(O)cc1)C(=O)O; 4Pal = N[C@@H](Cc1ccncc1)C(=O)O; Cha = N[C@@H](CC1CCCCC1)C(=O)O; dDab = NCC[C@@H](N)C(=O)O; dNMeA = CN[C@H](C)C(=O)O

B1: SEQ ID NO: 104 (peptide)
peptide: cyclo([TyrEtNAc]W[Phe(4-COOH)]G[Pro(trans-4-NH2)][1Nal(3S-Me)]D[dNMeA]G[Bip(4'-COOH)][4Pal]S[dA][hF3CF3])
SMILES: CC(=O)NCCOc1ccc(C[C@@H]2NC(=O)[C@H](CCc3cccc(C(F)(F)F)c3)NC(=O)[C@@H](C)NC(=O)[C@H](CO)NC(=O)[C@H](Cc3ccncc3)NC(=O)[C@H](Cc3ccc(-c4ccc(C(=O)O)cc4)cc3)NC(=O)CNC(=O)[C@@H](C)N(C)C(=O)[C@H](CC(=O)O)NC(=O)[C@H]([C@@H](C)c3cccc4ccccc34)NC(=O)[C@@H]3C[C@@H](N)CN3C(=O)CNC(=O)[C@H](Cc3ccc(C(=O)O)cc3)NC(=O)[C@H](Cc3c[nH]c4ccccc34)NC2=O)cc1

Target: Recombinant human IL-1β (BioLegend 579404) (human, UniProt P01584 117-269)
Assay: cell-based or functional assay
Conditions: not given

MRC5 IC50	Molecule
0.041 nM	B1

Target: T1, Recombinant human IL-1β (Homo sapiens, UniProt P01584)
T1 construct: purchased BioLegend 579404
T1 sequence (P01584 117-269): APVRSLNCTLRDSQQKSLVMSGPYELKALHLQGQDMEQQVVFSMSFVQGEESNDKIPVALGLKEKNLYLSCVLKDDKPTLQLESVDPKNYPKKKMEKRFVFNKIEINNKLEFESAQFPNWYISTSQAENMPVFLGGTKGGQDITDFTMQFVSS
Assay: IL-6 assay in MRC5 cells: inhibition of IL-1β induced IL-6 secretion (AlphaLISA)
Type: cell-based
Conditions: inhibition of IL-1β induced IL-6 secretion in MRC5 cells; IL-1β pre-incubated 1 hour with compound; read-out: MRC5 IC50
Procedure, shortened: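 IL-1β at 2×EC80 in seeding medium (EMEM, 0.025% BSA) preincubated 1 h at ambient temperature with compound, then 3000 MRC5 cells/well added and incubated overnight at 37 °C, 5% CO2. IL-6 in conditioned medium quantified by AlphaLISA; IC50 from 4-parameter logistic fit.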

IC50	Molecule
0.0158 nM	C[C@@H]1C(=O)NCC(=O)N[C@@H](Cc2ccc(-c3ccc(C(=O)O)cc3)cc2)C(=O)N[C@@H](CCCCN)C(=O)N[C@@H](CC2CCOCC2)C(=O)N[C@H](C)C(=O)N[C@@H](CCc2ccc(O)cc2)C(=O)N[C@@H](Cc2ccc(-c3ccc(C(=O)O)cc3)cc2)C(=O)N[C@@H](Cc2c[nH]c3ccccc23)C(=O)N[C@@H](Cc2ccc(C(=O)O)cc2)C(=O)NCC(=O)N2C[C@H](N)C[C@H]2C(=O)N[C@@H]([C@@H](C)c2c[nH]c3cccc(F)c23)C(=O)N[C@@H](CC(=O)O)C(=O)N1C [Example 65] (cyclo([Bip(4'-COOH)]W[Phe(4-COOH)]G[Pro(4R-NH2)][Trp(βS-Me,4-F)]D[dNMeA]G[Bip(4'-COOH)]K[Ala(4-THP)][dA][hTyr]))
0.135 nM	CC(=O)N1CCN(c2ccc(C[C@@H]3NC(=O)[C@H](CCc4ccc(O)cc4)NC(=O)[C@@H](CCN)NC(=O)[C@H](CC(C)C)NC(=O)[C@H](CCCCN)NC(=O)[C@H](Cc4ccc(-c5ccc(C(=O)O)cc5)cc4)NC(=O)CNC(=O)[C@@H](C)N(C)C(=O)[C@H](CC(=O)O)NC(=O)[C@H]([C@@H](C)c4c[nH]c5cccc(F)c45)NC(=O)[C@@H]4C[C@@H](N)CN4C(=O)CNC(=O)[C@H](Cc4ccc(C(=O)O)cc4)NC(=O)[C@H](Cc4c[nH]c5ccccc45)NC3=O)cn2)CC1 [Example 7] (cyclo([X1]W[Phe(4-COOH)]G[Pro(4R-NH2)][Trp(βS-Me,4-F)]D[dNMeA]G[Bip(4'-COOH)]KL[dDab][hTyr]))
0.0299 nM	CC(C)C[C@@H]1NC(=O)[C@H](CCCCN)NC(=O)[C@H](Cc2ccc(-c3ccc(C(=O)O)cc3)cc2)NC(=O)CNC(=O)[C@@H](C)N(C)C(=O)[C@H](CC(=O)O)NC(=O)[C@H]([C@@H](C)c2c[nH]c3cccc(F)c23)NC(=O)[C@@H]2C[C@@H](N)CN2C(=O)CNC(=O)[C@H](Cc2ccc(C(=O)O)cc2)NC(=O)[C@H](Cc2c[nH]c3ccccc23)NC(=O)[C@H](Cc2ccc(-c3ccc(C(=O)O)cc3)cc2)NC(=O)[C@H](CCc2cncc(C#N)c2)NC(=O)[C@@H](C)NC1=O [Example 66] (cyclo([Bip(4'-COOH)]W[Phe(4-COOH)]G[Pro(4R-NH2)][Trp(βS-Me,4-F)]D[dNMeA]G[Bip(4'-COOH)]KL[dA][h3Pal(5-CN)]))
0.133 nM	CC(=O)NCCOc1ccc(C[C@@H]2NC(=O)[C@H](CCc3ccc(C(F)(F)F)cc3)NC(=O)[C@@H](C)NC(=O)[C@H](CO)NC(=O)[C@H](CCCCN)NC(=O)[C@H](Cc3ccc(-c4ccc(C(=O)O)cc4)cc3)NC(=O)CNC(=O)[C@@H](C)N(C)C(=O)[C@H](CC(=O)O)NC(=O)[C@H]([C@@H](C)c3cccc4ccccc34)NC(=O)[C@@H]3C[C@@H](N)CN3C(=O)CNC(=O)[C@H](Cc3ccc(C(=O)O)cc3)NC(=O)[C@H](Cc3c[nH]c4ccccc34)NC2=O)cc1 [Example 111] (cyclo([AEF](Ac)W[Phe(4-COOH)]G[Pro(4R-NH2)][1Nal(3S-Me)]D[dNMeA]G[Bip(4'-COOH)]KS[dA][hPhe(4-CF3)]))

Same assay, conditions: inhibition of IL-1β induced IL-6 secretion in MRC5 cells; read-out: MRC5 IC50

IC50	Molecule
0.522 nM	CC(=O)NCCOc1ccc(C[C@@H]2NC(=O)[C@H](CCc3ccc(O)cc3)NC(=O)[C@@H](CCN)NC(=O)[C@H](CC(C)C)NC(=O)[C@H](CCCCN)NC(=O)[C@H](Cc3ccc(-c4ccc(C(=O)O)cc4)cc3)NC(=O)CNC(=O)[C@@H](C)N(C)C(=O)[C@H](CC(=O)O)NC(=O)[C@H]([C@@H](C)c3c[nH]c4cccc(F)c34)NC(=O)[C@@H]3C[C@@H](N)CN3C(=O)CNC(=O)[C@H](Cc3ccc(C(=O)O)cc3)NC(=O)[C@H](Cc3c[nH]c4ccccc34)NC2=O)cc1 [Example 160] (cyclo([AEF](Ac)W[Phe(4-COOH)]G[Pro(4R-NH2)][Trp(βS-Me,4-F)]D[dNMeA]G[Bip(4'-COOH)]KL[dDab][hTyr]))
0.029 nM	CC(=O)N1CCN(c2ccc(C[C@@H]3NC(=O)[C@H](CCc4ccc(O)cc4)NC(=O)[C@@H](CCN)NC(=O)CNC(=O)[C@H](CC4CCCCC4)NC(=O)[C@H](Cc4ccc(-c5ccc(C(=O)O)cc5)cc4)NC(=O)CNC(=O)[C@@H](C)N(C)C(=O)[C@H](CC(=O)O)NC(=O)[C@H]([C@@H](C)c4cccc5ccccc45)NC(=O)[C@@H]4C[C@@H](N)CN4C(=O)CNC(=O)[C@H](Cc4ccc(C(=O)O)cc4)NC(=O)[C@H](Cc4c[nH]c5ccccc45)NC3=O)cc2)CC1 [Example 202] (cyclo([Phe(4-(4-Ac-piperazinyl))]W[Phe(4-COOH)]G[Pro(4R-NH2)][1Nal(3S-Me)]D[dNMeA]G[Bip(4'-COOH)][Cha]G[dDab][hTyr]))
